This note sets out measurements from publication PMC5434554, “Structural similarities and functional differences clarify evolutionary relationships between tRNA healing enzymes and the myelin enzyme CNPase” (BMC Biochemistry, 2017).

What all share (experiment): thermal shift assay, SYPRO Orange
Holding throughout (type): binding

One test deals with T1, BfPNK/CPDase (Branchiostoma floridae, UniProt A0A9J7HK91).
T1 construct: gene LOC118405679; full length; N-terminal His6-3C tag cleaved; from E. coli Rosetta(DE3); monomer under reducing conditions
T1 sequence (A0A9J7HK91 entry or part of it): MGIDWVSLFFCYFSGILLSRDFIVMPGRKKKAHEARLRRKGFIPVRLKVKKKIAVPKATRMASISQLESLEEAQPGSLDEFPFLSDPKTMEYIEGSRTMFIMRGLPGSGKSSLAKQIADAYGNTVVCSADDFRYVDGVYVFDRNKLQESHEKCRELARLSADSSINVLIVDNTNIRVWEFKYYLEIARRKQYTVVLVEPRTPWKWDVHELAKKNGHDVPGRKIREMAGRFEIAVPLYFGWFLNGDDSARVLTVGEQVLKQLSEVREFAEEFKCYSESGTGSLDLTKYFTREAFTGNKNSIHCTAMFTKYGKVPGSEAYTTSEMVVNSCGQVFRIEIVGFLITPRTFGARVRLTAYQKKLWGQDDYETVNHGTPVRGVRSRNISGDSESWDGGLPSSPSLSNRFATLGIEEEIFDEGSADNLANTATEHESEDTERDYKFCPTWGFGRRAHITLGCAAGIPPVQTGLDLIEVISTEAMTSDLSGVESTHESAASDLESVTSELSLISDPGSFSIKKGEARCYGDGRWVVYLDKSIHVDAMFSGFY
The settings on record: 1000 µM; 50 mM HEPES pH 7.5, 150 mM NaCl, 1 mM ligand; ligand-free reference in the 1st table, row 9. The text has this: thermal shift assay, SYPRO Orange on BfPNK/CPDase

Another test deals with T2, ScTrl1 PNK/CPDase (Saccharomyces cerevisiae, UniProt P09880).
T2 construct: gene TRL1; PNK + CPDase domains of Trl1 (C-terminal part, ligase domain absent); N-terminal His6-3C tag cleaved; E. coli Rosetta(DE3); monomer
T2 sequence (P09880 389-827 limits assumed): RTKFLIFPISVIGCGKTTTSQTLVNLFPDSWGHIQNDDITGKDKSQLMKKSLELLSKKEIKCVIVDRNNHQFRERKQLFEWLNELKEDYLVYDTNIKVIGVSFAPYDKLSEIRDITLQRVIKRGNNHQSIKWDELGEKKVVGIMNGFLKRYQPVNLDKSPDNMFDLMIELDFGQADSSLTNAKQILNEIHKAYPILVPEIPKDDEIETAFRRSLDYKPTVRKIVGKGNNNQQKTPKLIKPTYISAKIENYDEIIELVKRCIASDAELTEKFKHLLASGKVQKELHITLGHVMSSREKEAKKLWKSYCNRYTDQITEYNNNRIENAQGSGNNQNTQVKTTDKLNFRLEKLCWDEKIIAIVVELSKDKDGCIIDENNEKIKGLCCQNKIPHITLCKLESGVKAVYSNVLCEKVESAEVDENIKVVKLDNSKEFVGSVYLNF
As to conditions: 1000 µM; 50 mM HEPES pH 7.5, 150 mM NaCl, 1 mM ligand; ligand-free reference in the 1st table, row 3. From the text: thermal shift assay, SYPRO Orange on ScTrl1 PNK/CPDase

Another test deals with T3, ScTrl1 CPDase (Saccharomyces cerevisiae, UniProt P09880).
T3 construct: gene TRL1; not the N+ or N- variants; N-terminal His6-3C tag cleaved; E. coli Rosetta(DE3); monomer
T3 sequence (P09880 561-827 limits assumed): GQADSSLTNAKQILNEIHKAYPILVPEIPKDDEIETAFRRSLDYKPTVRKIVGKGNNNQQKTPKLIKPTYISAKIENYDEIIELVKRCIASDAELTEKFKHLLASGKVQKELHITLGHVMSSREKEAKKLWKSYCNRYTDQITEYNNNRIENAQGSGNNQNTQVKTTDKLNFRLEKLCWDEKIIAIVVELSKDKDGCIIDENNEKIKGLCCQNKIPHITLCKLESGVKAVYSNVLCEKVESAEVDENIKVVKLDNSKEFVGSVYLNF
The settings on record: 1000 µM; 50 mM HEPES pH 7.5, 150 mM NaCl, 1 mM ligand; ligand-free reference in the 1st table, row 6. From the text:
thermal shift assay, SYPRO Orange on ScTrl1 CPDase

In the case of `NC(=O)c1ccc[n+]([C@@H]2O[C@H](COP(=O)(O)OP(=O)(O)OC[C@H]3O[C@@H](n4cnc5c(N)ncnc54)[C@@H]4OP(=O)(O)O[C@@H]43)[C@@H](O)[C@H]2O)c1` [2′,3′-cNADP^+], the “Tm (°C)” value at BfPNK/CPDase was found to be 48 °C; at ScTrl1 PNK/CPDase it was 63 °C; at ScTrl1 CPDase, 72 °C.
